Test results published in patent publication US9534008B2, “Small molecule compounds that control plant- and insect-pathogenic nematodes” (California Institute of Technology, priority 2011, dated 2017).
Entries after “also recorded” stand apart in the source; their conditions may differ.

Key:
[1] = system: several of the tested nematode species; assay: Retention assay, across species; format: in vivo; settings: 1 nM, 1 μM and 1 mM tested
Method: OP50 E. coli was grown on a standard 5 cm agar plate (made with standard Nematode Growth Medium). The bacterial lawn was 16 mm in diameter and was grown overnight at 20° C. before being used in trials. Two 4 mm spots (0.6 μL) were placed on opposite sides of the bacterial lawn (using a transparent template to guide spot placement), and several minutes elapsed for the liquid to settle in before placing nematodes down on the assay. Recording began immediately upon worm placement. 0.6 μL of the control was placed on one side of the lawn, and 0.6 μL of the experimental cue was placed on the other side of the lawn, changing the location of the cue throughout trials between left/right and top/bottom to avoid bias.
Nematodes were isolated by gender at the L4 stage the day before being used in trials as developed adults. Worms were evenly divided and placed at two points equidistant from the foci of the scoring region. Trials were recorded for 20 minutes, and frames were collected for analysis at 1 frame per second. Results were averaged from at least three different trials. For every nematode species in this study, a different total number of worms (using water in both scoring regions) was tested to determine the minimum number of worms necessary for consistent unbiased results over a 20 minute trial. The total number of worms used in the multiple species assays depended on that species' optimal parameters. 10 worms were used for P. redivivus males and females, 20 worms were used for C. elegans males and O. dolichuridae males, and 14 worms were used for S. glaseri males. The Automated Software was used to compare worm occupancy in each scoring region over time, and the Chemotaxis Index (Bargmann et al., Cell 74:515-27 (1993), which is hereby incorporated by reference in its entirety) was adapted to score preference or avoidance to each ascaroside.
A video camera attached to the microscope produced a digital video stream, which was then analyzed. The ratio of the time the average worm spent in each region of interest was calculated for every trial. For ease of implementation, all worms in a single experiment were assumed to be roughly the same size. Thus worm pixels were counted instead of whole worms, allowing fractions of a worm in the region of interest to be taken into account. It also eliminated the need for a shape-based worm identification algorithm, and allowed each frame to be analyzed independently. A band-pass filter was applied to each frame to eliminate the effect of uneven lighting and also accentuate the worms against the background. The worm was then identified after thresholding the filtered image. Throughout each experiment, the locations and sizes of the regions of interest were known. Through the filtering described above, it is known which pixels are occupied by worms and which ones are not. Thus, the ratio of worm-pixels to all pixels inside the region of interest can be calculated to produce the worm-occupancy ratio. This calculation was done for every frame, giving a plot output of worm-occupancy ratio vs. time for each region.

[2] = system: C. elegans males; assay: Attraction assay (long-range, point source); settings: in vivo
Method: 10 cm standard chemotaxis plates were prepared (Bargmann et al., Cell 74:515-27 (1993), which is hereby incorporated by reference in its entirety) and stored at 4° C. until the day before use. Standard 1 cm-diameter copper pipes were sectioned into 1 cm-tall segments to use for the holding chambers. The females/hermaphrodites were isolated overnight, washed 3 times in M9 buffer, and then allowed to wander on a plate pre-conditioned with 50 uL of 1000× streptomycin for 2 hours to kill any bacteria that might produce a false positive attractant. The nematodes were then washed 3 times, and the supernatant from the last wash was placed in a copper chamber, as the control, 1 cm from the border of the 10 cm plate. The nematodes were suspended in M9 within the copper chamber, 1 cm from the border opposite the control chamber. After 6 hours, they were subsequently removed and replaced with 3 μL of 1M sodium azide. 100 C. elegans adult males were isolated overnight, washed several times in ddH2O, and placed at the center of the agar plate. After several hours, males paralyzed within 2 cm of each region were scored. The Chemotaxis Index (Bargmann et al., Cell 74:515-27 (1993), which is hereby incorporated by reference in its entirety) was then used to score male chemotaxis to either point source.

[3] = system: C. elegans; assay: Ascaroside function (Table 12), C. elegans; format: in vivo, Caenorhabditis elegans; set-up: key to Attract Females/Herm. / Promote Dauer Formation / Attract Males: A very strong result of affecting nematode behavior is designated in the table as “strong.”
Method: (§1) Various ascarosides and ascaroside blends were administered to various nematodes described below (Table 12). […] A very strong result of affecting nematode behavior is designated in the table as “strong.”

[4] = system: Panagrellus redivivus; assay: Ascaroside function (Table 12), Panagrellus redivivus; format: in vivo
Method: as §1

[5] = system: S. feltiae; assay: Ascaroside function (Table 12), S. feltiae; format: in vivo, Steinernema feltiae
Method: as §1

[6] = system: S. glaseri; assay: Ascaroside function (Table 12), S. glaseri; format: in vivo
Method: as §1

[7] = system: C. elegans; settings: cited from earlier work
[8] = system: C. elegans; settings: in vivo; cited from earlier work
[9] = system: Meloidogyne javanica, M. floridensis, M. incognita, M. hapla; assay: Ascaroside function (Table 12), root-knot nematodes; format: in vivo, Meloidogyne spp.; settings: for Dispersal (of dauer larvae, infectious juveniles) / Repel Females/Herm.: Meloidogyne javanica, M. floridensis, M. incognita, M. hapla, entries marked *; for act as dispersants and repellants in Meloidogyne species: alone, in concert, and/or in concert with ascr#9 or other ascarosides
Method: as §1

[10] = system: Heterorhabditis bacteriophora, H. zealandica, H. floridensis; assay: Ascaroside function (Table 12), Heterorhabditis; format: in vivo, Heterorhabditis spp.; settings: for Dispersal (of dauer larvae, infectious juveniles) / Repel Females/Herm.: Heterorhabditis bacteriophora, H. zealandica, H. floridensis, entries marked *; for act as dispersants and repellants in Heterorhabditis: alone, in concert, and/or in concert with ascr#9 or other ascarosides
Method: as §1

[11] = system: C. elegans hermaphrodites and males; assay: Spot attraction assay; format: in vivo
Method: The spot attraction assays were conducted according to a previously reported method (Pungaliya et al., PNAS 106:7708-13 (2009); Srinivasan et al., Nature 454:1115-18 (2008), which are hereby incorporated by reference in their entirety). For both C. elegans hermaphrodites and males, 50-60 worms were harvested daily at the fourth larval stage (L4) and stored segregatedly by sex at 20° C. overnight, to be used as young adults the following day. For the competition experiments, two conditions were used: 120 nM ascr#3 and 10 nM icas#3 (Condition 1), or 12 μM ascr#3 and 1 μM icas#3 (Condition 2) in water containing 10% ethanol. Aliquots were stored at −20° C. in 20 μL tubes. 10% ethanol in water was used as control.
Attraction assays with hbas#3 were conducted as previously reported (Srinivasan et al., Nature 454:1115-18 (2008); Pungaliya et al., Proc. Natl. Acad. Sci. U.S.A. 106:7708-13 (2009), which are hereby incorporated by reference in their entirety). For the attraction assays, 50-60 hermaphrodite worms were harvested daily at the early fourth larval stage (L4) and stored at 20° C. overnight to be used as young adults the following day. Hbas#3 was dissolved in water containing 10% ethanol. Aliquots were stored at −20° C. in 20 μL tubes. 10% ethanol in water was used as control.

[12] = system: C. elegans hermaphrodites; assay: Quadrant chemotaxis assay; format: in vivo; settings: FIGS. 48A-B (spot attraction and quadrant chemotaxis)
Method: Chemotaxis to both non-indole and indole ascarosides was assessed on 10 cm four-quadrant petri plates (Wicks et al., Dev. Biol. 221:295-307 (2000), which is hereby incorporated by reference in its entirety). Each quadrant was separated from adjacent ones by plastic spacers (FIG. 1B). Pairs of opposite quadrants were filled with nematode growth medium (NGM) agar containing either indole ascarosides or non-indole ascarosides at different concentrations. Animals were washed gently in a S-basal buffer, placed in the center of a four-quadrant plate with ascarosides in alternating quadrants, and scored after 15 minutes and 30 minutes. A chemotaxis index was calculated as: (the number of animals on ascaroside quadrants minus the number of animals on buffer quadrants)/(total number of animals).
Chemotaxis to hbas#3 was assessed on 10 cm four-quadrant petri plates (Wicks et al., Dev. Biol. 221:295-307 (2000), which is hereby incorporated by reference in its entirety). Each quadrant was separated from adjacent ones by plastic spacers. Pairs of opposite quadrants were filled with nematode growth medium (NGM) agar containing different concentrations of hbas#3. Animals were washed gently in an S-basal buffer and placed in the center of a four-quadrant plate with ascarosides in alternating quadrants, and scored after 15 minutes and 30 minutes. A chemotaxis index was calculated as: (the number of animals on ascaroside quadrants minus the number of animals on buffer quadrants)/(total number of animals).

CC1O[C@@H](O[C@H](C)CCCC/C=C/C(=O)O)[C@@H](O)C[C@H]1O (stereo partly drawn) [ascr#3]
preference for areas conditioned by ascaroside [1]: preferred
C. elegans male chemotaxis to a point source [2]: chemotax towards
amount eliciting C. elegans male attraction from a distance (as low as) [2]: ≤ 5 femtomol
Attract Males [3]: ascr#3
Promote Dauer Formation [3]: ([strong])
Repel Females/Herm. [3]: ascr#3
Attract Males [4]: ascr#3
Dispersal (of dauer larvae, infectious juveniles) [5]: ascr#3
Attract Males [6]: ascr#3
most active amount for attraction in C. elegans ([7]; from 1 μM concentration): ~1 pmol
hermaphrodite repulsion ([7]; in vivo): repels hermaphrodites; also recorded: strongly deter
male attraction ([7]; in vivo): strongly attracts males
dauer-inducing activity [8]: promote dauer entry

CC(=O)CC[C@@H](C)O[C@@H]1O[C@@H](C)[C@H](O)C[C@H]1O[C@@H]1O[C@H](CO)[C@@H](O)[C@H](O)[C@H]1O [ascr#4]
Promote Dauer Formation [3]: ascr#4

C[C@@H]1O[C@@H](OCCC(=O)O)[C@H](O)C[C@H]1O [ascr#5]
Promote Dauer Formation [3]: ([strong])
Repel Females/Herm. [3]: ascr#5

C[C@H](CC/C=C/C(=O)O)O[C@@H]1O[C@@H](C)[C@H](O)C[C@H]1O [ascr#7]
preference for areas conditioned by ascaroside [1]: preferred
Attract Males [3]: ascr#7
Attract Males [4]: ascr#7
Attract Males [6]: ascr#7

CC1O[C@@H](O[C@H](C)CCCCCCC(=O)O)C(O)C[C@H]1O (stereo partly drawn) [ascr#10]
preference for areas conditioned by ascaroside [1]: preferred
Attract Males [3]: ascr#10
Attract Males [4]: ascr#10
Dispersal (of dauer larvae, infectious juveniles) [9]: ascr#10*
Repel Females/Herm. [9]: ascr#10*
act as dispersants and repellants in Meloidogyne species [9]: dispersants and repellants
Attract Males [6]: ascr#10

CC1OC(O[C@H](C)CCCCCCCC(=O)O)C(O)CC1O (stereo partly drawn) [ascr#16]
Dispersal (of dauer larvae, infectious juveniles) [9]: ascr#16*
Repel Females/Herm. [9]: ascr#16*
act as dispersants and repellants in Meloidogyne species [9]: dispersants and repellants

CC1OC(O[C@H](C)CCCCCCCCC(=O)O)C(O)CC1O (stereo partly drawn) [ascr#18]
Dispersal (of dauer larvae, infectious juveniles) [9]: ascr#18*
Repel Females/Herm. [9]: ascr#18*
act as dispersants and repellants in Meloidogyne species [9]: dispersants and repellants
Dispersal (of dauer larvae, infectious juveniles) [10]: ascr#18*
Repel Females/Herm. [10]: ascr#18*
act as dispersants and repellants in Heterorhabditis [10]: dispersants and repellants

CC1OC(O[C@H](C)CCCCCCCCCC(=O)O)C(O)CC1O (stereo partly drawn) [ascr#20]
Dispersal (of dauer larvae, infectious juveniles) [9]: ascr#20*
Repel Females/Herm. [9]: ascr#20*
act as dispersants and repellants in Meloidogyne species [9]: dispersants and repellants

C[C@H](CCCCCCCCCCC(=O)O)O[C@@H]1O[C@@H](C)[C@H](O)C[C@H]1O [ascr#22]
Dispersal (of dauer larvae, infectious juveniles) [9]: ascr#22*
Repel Females/Herm. [9]: ascr#22*
act as dispersants and repellants in Meloidogyne species [9]: dispersants and repellants
Dispersal (of dauer larvae, infectious juveniles) [10]: ascr#22*
Repel Females/Herm. [10]: ascr#22*
act as dispersants and repellants in Heterorhabditis [10]: dispersants and repellants

C[C@H](CCCC/C=C/C(=O)O)O[C@@H]1O[C@@H](C)[C@H](OC(=O)c2ccc(O)cc2)C[C@H]1O [hbas#3, (8R)-(3′R-Hydroxy-5′R-(4-hydroxybenzoyloxy)-6′S-methyl-(2H)-tetrahydropyran-2′-yloxy)non-(2E)-enoic acid]
attraction of wild-type (N2) hermaphrodites ([11]; dose dependent manner): attracted
concentration at which C. elegans is strongly attracted (as low as) [12]: ≤ 10 femtomolar
Attract Females/Herm. [3]: ([very
Attract Males [3]: ([strong])

C[C@H](CCCCC(=O)O)O[C@@H]1O[C@@H](C)[C@H](OC(=O)c2c[nH]c3ccccc23)C[C@H]1O [icas#1]
attraction of both C. elegans sexes ([11]; high concentrations, 1 μmol, N2 hermaphrodites and him-5 males): attractive; also recorded: attracted
Attract Females/Herm. [3]: ([strong])
Attract Males [3]: ([strong])

C[C@@H]1O[C@@H](OCCCCC(=O)O)[C@H](O)C[C@H]1O [oscr#9, 5-(3′R,5′R-Dihydroxy-6′S-methyl-(2H)-tetrahydropyran-2′-yloxy)pentanoic acid]
Attract Males [4]: oscr#9

CC1O[C@@H](OCCCCCCCCC(=O)O)C(O)C[C@H]1O (stereo partly drawn) [oscr#10, 9-(3′R,5′R-Dihydroxy-6′S-methyl-(2H)-tetrahydropyran-2′-yloxy)nonanoic acid]
Repel Males [4]: oscr#10
